For experiment [1], the target named is T1, Relaxin receptor 1 (Homo sapiens) (UniProt Q9HBX9).
T1 sequence (whole entry): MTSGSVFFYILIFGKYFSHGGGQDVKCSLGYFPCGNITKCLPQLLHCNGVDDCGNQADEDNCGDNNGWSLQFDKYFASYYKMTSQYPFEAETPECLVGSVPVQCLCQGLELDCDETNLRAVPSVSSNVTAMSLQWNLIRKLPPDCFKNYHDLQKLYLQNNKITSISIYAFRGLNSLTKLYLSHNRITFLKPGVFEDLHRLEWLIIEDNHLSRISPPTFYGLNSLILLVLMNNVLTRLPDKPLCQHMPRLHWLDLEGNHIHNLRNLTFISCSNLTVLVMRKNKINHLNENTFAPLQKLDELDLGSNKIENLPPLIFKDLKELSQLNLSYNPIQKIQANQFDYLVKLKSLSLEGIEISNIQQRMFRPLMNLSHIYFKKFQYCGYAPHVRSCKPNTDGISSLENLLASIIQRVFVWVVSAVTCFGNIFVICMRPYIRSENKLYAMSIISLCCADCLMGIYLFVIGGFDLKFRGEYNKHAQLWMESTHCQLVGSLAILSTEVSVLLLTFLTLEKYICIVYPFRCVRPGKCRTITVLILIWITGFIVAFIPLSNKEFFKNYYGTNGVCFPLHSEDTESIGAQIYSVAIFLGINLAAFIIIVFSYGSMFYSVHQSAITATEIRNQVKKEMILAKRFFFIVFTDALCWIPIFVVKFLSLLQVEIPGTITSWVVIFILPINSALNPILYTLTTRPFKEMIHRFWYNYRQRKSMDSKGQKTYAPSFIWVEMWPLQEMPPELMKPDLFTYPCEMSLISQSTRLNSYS
As to the kind of experiment: Activation of RXFP1 expressed in HEK-293T cells assessed as induction of cAMP accumulation after 6 hrs by beta galactosidase reporter gene assay. It counts as functional, cell-based. Background: cAMP levels reflect the balance of adenylyl cyclase and phosphodiesterase activity.

For a further experiment, the target named is Relaxin-3 receptor 2 (Homo sapiens, UniProt Q8TDU9). Put plainly: Agonist activity at RXFP4 expressed in CHO-K1 cells assessed as inhibition of forskolin-induced cAMP accumulation after 6 hrs by beta galactosidase reporter gene assay. It counts as functional, cell-based.
Relaxin-3 receptor 2, sequence (Q8TDU9 whole entry): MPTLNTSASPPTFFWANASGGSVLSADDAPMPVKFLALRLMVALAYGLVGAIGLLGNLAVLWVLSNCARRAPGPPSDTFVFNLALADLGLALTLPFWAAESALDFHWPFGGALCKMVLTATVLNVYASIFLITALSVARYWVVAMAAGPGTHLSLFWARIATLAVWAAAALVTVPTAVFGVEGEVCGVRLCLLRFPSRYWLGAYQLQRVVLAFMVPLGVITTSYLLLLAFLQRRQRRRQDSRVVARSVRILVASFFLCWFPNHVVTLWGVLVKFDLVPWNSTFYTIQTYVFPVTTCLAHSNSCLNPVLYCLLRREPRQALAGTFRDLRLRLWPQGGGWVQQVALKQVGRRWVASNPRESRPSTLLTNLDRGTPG
The target of another experiment is T2, Relaxin receptor 1 (Homo sapiens, UniProt Q9HBX9).
T2 sequence (Q9HBX9 whole entry): T1 sequence (whole entry)
As to the kind of experiment: Displacement of europium-labelled H2 relaxin from RXFP1 expressed in HEK-293T cells. It counts as cell-based.

The next experiment deals with T3, Relaxin-3 receptor 1 (Homo sapiens, UniProt Q9NSD7).
T3 sequence (Q9NSD7 whole entry): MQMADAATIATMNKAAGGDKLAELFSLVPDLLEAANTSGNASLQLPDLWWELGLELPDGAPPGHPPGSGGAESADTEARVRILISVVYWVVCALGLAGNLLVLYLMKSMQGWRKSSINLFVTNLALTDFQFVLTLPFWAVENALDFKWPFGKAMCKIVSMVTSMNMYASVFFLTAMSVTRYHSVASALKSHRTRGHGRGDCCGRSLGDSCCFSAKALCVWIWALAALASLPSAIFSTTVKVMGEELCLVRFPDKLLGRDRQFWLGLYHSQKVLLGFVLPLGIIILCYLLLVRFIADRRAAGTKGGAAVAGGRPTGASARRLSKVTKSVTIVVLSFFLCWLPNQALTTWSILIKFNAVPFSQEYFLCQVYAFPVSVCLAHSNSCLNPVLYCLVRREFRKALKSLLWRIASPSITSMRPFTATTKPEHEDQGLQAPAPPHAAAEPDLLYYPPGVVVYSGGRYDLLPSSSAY
As to the kind of experiment: Displacement of europium-labelled H3 relaxin-B chain/INSL-5 chain from RXFP3 expressed in CHO-K1 cells. It counts as cell-based.

Active and inactive are the calls of the source. The calls are words filed in the database; no cut-off is given here. Residues, ends and D or L forms follow the SMILES beside them. Bounds are passed on as bounds.

In the case of `CC[C@H](C)[C@@H]1NC(=O)[C@H](Cc2ccccc2)NC(=O)[C@H](CCC(=O)O)NC(=O)[C@H](CCCNC(=N)N)NC(=O)CNC(=O)[C@@H](N)CSSC[C@H](N)C(=O)N[C@@H](CCCCN)C(=O)N[C@@H](Cc2c[nH]c3ccccc23)C(=O)NCC(=O)N[C@@H](C)C(=O)N[C@@H](CO)C(=O)N[C@@H](CCCCN)C(=O)N[C@@H](CO)C(=O)N[C@@H](CCC(=O)O)C(=O)N[C@@H]([C@@H](C)CC)C(=O)N[C@@H](CO)C(=O)N[C@@H](CO)C(=O)N[C@@H](CC(C)C)C(=O)N[C@H](C(=O)O)CSSC[C@@H](C(=O)NCC(=O)NCC(=O)N[C@@H](CO)C(=O)N[C@@H](CCCNC(=N)N)C(=O)N[C@@H](Cc2c[nH]c3ccccc23)C(=O)O)NC(=O)[C@H]([C@@H](C)O)NC(=O)[C@H](Cc2ccccc2)NC(=O)[C@H]([C@@H](C)CC)NC(=O)[C@H](C(C)C)NC(=O)[C@H](C)NC(=O)[C@H](CCCNC(=N)N)NC1=O`, in experiment [1], the pIC50 result is “inactive”.

For the molecule `CC[C@H](C)[C@@H]1NC(=O)[C@H](Cc2ccccc2)NC(=O)[C@H](CCC(=O)O)NC(=O)[C@H](CCCN=C(N)N)NC(=O)CNC(=O)[C@@H](N)CSSC[C@H](N)C(=O)N[C@@H](CCCCN)C(=O)N[C@@H](Cc2c[nH]c3ccccc23)C(=O)NCC(=O)N[C@@H](C)C(=O)N[C@@H](CO)C(=O)N[C@@H](CCCCN)C(=O)N[C@@H](CO)C(=O)N[C@@H](CCC(=O)O)C(=O)N[C@@H]([C@@H](C)CC)C(=O)N[C@@H](CO)C(=O)N[C@@H](CO)C(=O)N[C@@H](CC(C)C)C(=O)N[C@H](C(=O)O)CSSC[C@@H](C(=O)NCC(=O)NCC(=O)N[C@@H](CO)C(=O)N[C@@H](CCCN=C(N)N)C(=O)N[C@@H](Cc2c[nH]c3ccccc23)C(=O)O)NC(=O)[C@H]([C@@H](C)O)NC(=O)[C@H](Cc2ccccc2)NC(=O)[C@H]([C@@H](C)CC)NC(=O)[C@H](C(C)C)NC(=O)[C@H](C)NC(=O)[C@H](CCCN=C(N)N)NC1=O`, at Relaxin-3 receptor 2, the IC50 is 3.47 nM. Besides, on Relaxin receptor 1, the Ki was > 10000 nM.

For `CC[C@H](C)[C@H](NC(=O)[C@H](CS)NC(=O)[C@H](CCC(=O)O)NC(=O)[C@H](CCCN=C(N)N)NC(=O)CNC(=O)[C@H](CS)NC(=O)[C@H](CC(C)C)NC(=O)[C@H](CCCN=C(N)N)NC(=O)[C@@H](NC(=O)CNC(=O)[C@H](Cc1ccc(O)cc1)NC(=O)[C@@H]1CCCN1C(=O)[C@H](C)NC(=O)[C@H](C)NC(=O)[C@@H](N)CCCN=C(N)N)C(C)C)C(=O)N[C@@H](CCCN=C(N)N)C(=O)N[C@@H](C)C(=O)N[C@@H](CS)C(=O)N[C@H](C(=O)N[C@@H](Cc1ccccc1)C(=O)N[C@H](C(=O)N[C@@H](CS)C(=O)NCC(=O)NCC(=O)N[C@@H](CO)C(=O)N[C@@H](CCCN=C(N)N)C(=O)N[C@@H](Cc1c[nH]c2ccccc12)C(=O)O)[C@@H](C)O)[C@@H](C)CC` (H-RAAPYGVRLCGRECIRACIFTCGGSRW-OH), at Relaxin-3 receptor 1, the Ki was > 10000 nM.

As to `CC[C@H](C)[C@H](NC(=O)[C@H](Cc1ccccc1)NC(=O)[C@H](CCC(=O)O)NC(=O)[C@H](CCCNC(=N)N)NC(=O)CNC(=O)[C@H](CO)NC(=O)[C@H](CC(C)C)NC(=O)[C@H](CCCNC(=N)N)NC(=O)[C@@H](NC(=O)CNC(=O)[C@H](CS)NC(=O)[C@@H]1CCCN1C(=O)[C@H](C)NC(=O)[C@H](C)NC(=O)[C@@H](N)CCCNC(=N)N)C(C)C)C(=O)N[C@@H](CCCNC(=N)N)C(=O)N[C@@H](C)C(=O)N[C@H](C(=O)N[C@H](C(=O)N[C@@H](Cc1ccccc1)C(=O)N[C@@H](CS)C(=O)N[C@@H](CO)C(=O)NCC(=O)NCC(=O)N[C@@H](CO)C(=O)N[C@@H](CCCNC(=N)N)C(=O)N[C@@H](Cc1c[nH]c2ccccc12)C(=O)O)[C@@H](C)CC)C(C)C` (H-RAAPCGVRLSGREFIRAVIFCSGGSRW-OH), the inhibition constant (Ki) at Relaxin-3 receptor 1 was > 10000 nM.

Molecule H-RAAPYGVRLSGREFIRAVIFTSGGSRW-OH had a Ki on Relaxin-3 receptor 1 of 2950 nM.

For the molecule `CC[C@H](C)[C@@H]1NC(=O)[C@H](Cc2ccccc2)NC(=O)[C@H](CCC(=O)O)NC(=O)[C@H](CCCNC(=N)N)NC(=O)CNC(=O)[C@@H](NC(=O)[C@H](CC(C)C)NC(=O)[C@@H](N)CCCNC(=N)N)CSSC[C@H](N)C(=O)N[C@@H](CCCCN)C(=O)N[C@@H](Cc2c[nH]c3ccccc23)C(=O)NCC(=O)N[C@@H](C)C(=O)N[C@@H](CO)C(=O)N[C@@H](CCCCN)C(=O)N[C@@H](CO)C(=O)N[C@@H](CCC(=O)O)C(=O)N[C@@H]([C@@H](C)CC)C(=O)N[C@@H](CO)C(=O)N[C@@H](CO)C(=O)N[C@@H](CC(C)C)C(=O)N[C@H](C(=O)O)CSSC[C@@H](C(=O)NCC(=O)NCC(=O)N[C@@H](CO)C(=O)N[C@@H](CCCNC(=N)N)C(=O)N[C@@H](Cc2c[nH]c3ccccc23)C(=O)O)NC(=O)[C@H]([C@@H](C)O)NC(=O)[C@H](Cc2ccccc2)NC(=O)[C@H]([C@@H](C)CC)NC(=O)[C@H](C(C)C)NC(=O)[C@H](C)NC(=O)[C@H](CCCNC(=N)N)NC1=O`, the pIC50 entry in experiment [1] is “inactive”.

Turning to H-RAAPYGVRLSGREFIRAVIFRSGGSRW-OH, at Relaxin-3 receptor 1, the Ki is 741 nM.

`CC[C@H](C)[C@@H]1NC(=O)[C@H](Cc2ccccc2)NC(=O)[C@H](CCC(=O)O)NC(=O)[C@H](CCCNC(=N)N)NC(=O)CNC(=O)[C@@H](NC(=O)[C@H](CC(C)C)NC(=O)[C@H](CCCNC(=N)N)NC(=O)[C@@H](NC(=O)CN)C(C)C)CSSC[C@H](N)C(=O)N[C@@H](CCCCN)C(=O)N[C@@H](Cc2c[nH]c3ccccc23)C(=O)NCC(=O)N[C@@H](C)C(=O)N[C@@H](CO)C(=O)N[C@@H](CCCCN)C(=O)N[C@@H](CO)C(=O)N[C@@H](CCC(=O)O)C(=O)N[C@@H]([C@@H](C)CC)C(=O)N[C@@H](CO)C(=O)N[C@@H](CO)C(=O)N[C@@H](CC(C)C)C(=O)N[C@H](C(=O)O)CSSC[C@@H](C(=O)NCC(=O)NCC(=O)N[C@@H](CO)C(=O)N[C@@H](CCCNC(=N)N)C(=O)N[C@@H](Cc2c[nH]c3ccccc23)C(=O)O)NC(=O)[C@H]([C@@H](C)O)NC(=O)[C@H](Cc2ccccc2)NC(=O)[C@H]([C@@H](C)CC)NC(=O)[C@H](C(C)C)NC(=O)[C@H](C)NC(=O)[C@H](CCCNC(=N)N)NC1=O`: in experiment [1], the pIC50 entry is “inactive”. For the same molecule, the concentration for half-maximal inhibition (IC50) at Relaxin-3 receptor 2 is 14.1 nM. Further, the Ki on Relaxin receptor 1 was > 10000 nM.

As to `CC[C@H](C)[C@H](NC(=O)[C@@H](NC(=O)[C@H](C)NC(=O)[C@H](CCCN=C(N)N)NC(=O)[C@H](CS)NC(=O)[C@H](Cc1ccccc1)NC(=O)[C@H](CCC(=O)O)NC(=O)[C@H](CCCN=C(N)N)NC(=O)CNC(=O)[C@H](CO)NC(=O)[C@H](CC(C)C)NC(=O)[C@H](CCCN=C(N)N)NC(=O)[C@@H](NC(=O)CNC(=O)[C@H](Cc1ccc(O)cc1)NC(=O)[C@@H]1CCCN1C(=O)[C@H](C)NC(=O)[C@H](C)NC(=O)[C@@H](N)CCCN=C(N)N)C(C)C)C(C)C)C(=O)N[C@@H](Cc1ccccc1)C(=O)N[C@H](C(=O)N[C@@H](CS)C(=O)NCC(=O)NCC(=O)N[C@@H](CO)C(=O)N[C@@H](CCCN=C(N)N)C(=O)N[C@@H](Cc1c[nH]c2ccccc12)C(=O)O)[C@@H](C)O` (H-RAAPYGVRLSGREFCRAVIFTCGGSRW-OH), the inhibitory constant (Ki) at Relaxin-3 receptor 1 is > 10000 nM.

On to H-RAAPYGVRLSGREFIRKVIFTSGGSRW-OH, for which the inhibitory constant (Ki) on Relaxin-3 receptor 1 was > 10000 nM.

Regarding H-RAAPYGVRLSGREFIRAVIFTRGGSRW-OH, at Relaxin-3 receptor 1, the Ki is 3390 nM.

As to H-RAAPYGVRLSGREFIRAVIFTSRGSRW-OH, the Ki at Relaxin-3 receptor 1 was 2090 nM. Against the preceding molecule, the Ki is about 1.6-fold lower.

As to H-RAAPYGVRLSGREFIRAVIFTSRGGSRW-OH, the inhibition constant (Ki) on Relaxin-3 receptor 1 was 2570 nM. The Ki values of the last two molecules are within 1.5-fold of each other.

Usually IC50 stands for the concentration at which inhibition is half-maximal. The Ki is the dissociation constant of the complex between target and ligand, obtained from inhibition or displacement.
